Results published in publication PMC12261321, “Inhibitors of the Bacterioferritin Ferredoxin Complex Dysregulate Iron Homeostasis and Kill and Biofilm-Embedded Cells” (ACS Infectious Diseases, 2025).

How the values were obtained:
Assay type in all cases: cell-based
[1] = system: P. aeruginosa PAO1; assay: Compound intracellular accumulation in P. aeruginosa PAO1; conditions: cells treated with 30 µM compound
Experimental: (§1) Determination of Compound Intracellular Accumulation. These experiments were carri ed out as reported previously,16 with modifications. Starter cultures o f P. aeruginosa PAO1 or A. baumannii 5075 were centrifuged for 10 min at 3148 x g and 4 °C, resuspended in 5 mL of fresh LB, diluted to OD 600 = 0.03 in fresh LB media (250 mL), and then cultured at 35 °C and 220 rpm for 4 h. Th e resultant cul ture was diluted to OD600 = 0.4 in 250 mL LB and centrifuged at 4 °C and 3470 x g for 10 min. The cell pellet was resuspended in 20 mL of PBS and transfer red to a 50 mL conical tube, where it was centrifuged at 4 °C and 3148 x g for 20 min. The cell pellet was resuspended in 15 mL of PBS supplemented with 0.05% (w/v) HPMC and the suspension was divided equally into two new conical tubes. One of th e tubes was treated with 150 µL of DMSO (control), while the second tube was treated with 150 µL of compound in DMSO solution to produce a compound final concentration of 30 µM or 15 µM. The resultant mixtures were incubated at 37 °C and 220 rpm for 15 min, placed on ice for 1 min, and then centrifuged at 3148 x g rpm and 4 °C for 10 min. The cell pellet was resuspended in 7.5 mL of ice -cold PBS and vortexed (10 s, five t imes). 200 µL of the cell suspension was used to plate and enumerate viable cells, and 800 µL of the suspension was lay ered onto 700 µL of chilled silicon oil contained in 1.5 mL Eppendo rf tubes and then centrifuged at 4 °C ( 900 x g) for 10 min, then again at 16,200 x g for 5 min to allow pass ag e of the cell suspension through the silicon oil layer. The aqueous and oil layers were removed, and the cell pellet was washed twice in PBS (800 μ L), each time transferring the cell suspension to a new Eppendorf tube and then centrifuging at 16,200 x g. The cell pellet was lysed in 800 µL methanol by vortexing followed by 10 min incubationat room temperatur e. The lysate suspension was pelleted, the supernatant was transferred to a new Eppendorf tube and then placed into a vacuum concentrator (Eppendorf 5301 Vacufuge) to evaporate the methanol (4 h). The dried […]
(§2) cell lysate was resuspend ed in 600 µL of DMSO and centrifuged at 16,200 x g rpm for 5 min at room temperature.
(§3) The clarified supernatant was titrated with small volumes of 250 µM compound stock, measuring the fluorescen ce after the addition of each aliquot with the aid of a Cary Eclipse Fluorescence Spectrometer (Agilent). The compound concentration was determined utilizing the standard addition method,17 and compound accumulation is reported as nmol compound/1012 CFU/mL. […]
(§4) Eclipse) fluorescen ce sp ectrophotometer. The flu orescen ce intensity of th e treated sample (FI)Tr and that of the untreated control (FI)Un was normalized to the corresponding OD600 and the ratio (FI/OD600)Tr / (F I/ OD600)Un is […]
(§5) The determination for each of the compounds was carri ed out in 5 biological replicates.
(§6) Determination of Siderophores Secreted by A. baumannii . The chromo azurol S (CAS) solution was prepared as previously reported18 with some modifications. The blue dye solution (0.6 g/L CAS ( ACROS Organics), 100 μM FeCl3·6H2O, and 0.73 g/L hexadecyltrimethylammonium bromide (HDTMA, ACROS Organics) was autoclaved and stored in the dark. The MM9-PIPES buffer solution (3 g/L KH2PO4, 5 g/L NaCl, 10 g/L NH4C l, 32.24 g/L piperazine -1,4-bis-2- ethanesulfonic acid (PIPES , Sigma Aldrich), pH 6.75) was sterilized using a 0.22 µm syringe filter (VWR). Prior to every experimen t, blue dye solution (0.5 mL) was mixed with 4.5 mL of MM9-PIPES solution. An overnight culture of A. baumannii 5075 was diluted to OD600 = 0.0001 with modified M63 media (no citric acid) supplemented with 4 μ M Fe and transferred to a 96-well plate, wh ere it was cul tured for 20

[2] = system: A. baumannii 5075; assay: Compound intracellular accumulation in A. baumannii 5075; conditions: cells treated with 30 µM compound
Experimental: as §1, §2, §3, §4, §5, §6

[3] = system: P. aeruginosa PAO1; assay: Compound intracellular accumulation in P. aeruginosa PAO1; conditions: ‡ treatment with 15 µM compound

Structure (SMILES)	Intracell. Accum, P. aeruginosa PAO1 [1] [nmol/1012 CFU]	Intracell. Accum, A. baumannii 5075 [2] [nmol/1012 CFU]	Intracell. Accum, P. aeruginosa PAO1 [3] [nmol/1012 CFU]
O=C1NC(=O)c2c(NCc3cc(Br)c(O)cc3O)cccc21 [SB-16-137]	33 ± 1	86 ± 23	–
O=C1NC(=O)c2c(NCc3cc(F)ccc3O)cccc21 [JAG-5-7]	28 ± 10	157 ± 54	–
O=C1NC(=O)c2c(NCc3cc(Br)c(F)cc3O)cccc21 [SB-16-112]	–	–	457 ± 22
O=C1NC(=O)c2c(NCc3cccc(Br)c3O)cccc21 [EB-5-73]	34 ± 9	201 ± 30	–
O=C1NC(=O)c2c(NCc3ccc(Br)cc3O)cccc21 [EB-5-61]	197 ± 17	–	–
O=C1NC(=O)c2c(NCc3c(O)cccc3Cl)cccc21 [KM-5-29]	351 ± 25	2614 ±134	–
O=C1NC(=O)c2c(NCc3cccc(Cl)c3O)cccc21 [KM-5-30]	42 ± 1	169 ± 62	–
O=C1NC(=O)c2c(NCc3ccccc3O)cccc21 [Analog 11, 4-((2-Hydroxybenzyl)amino)isoindoline-1,3-dione]	–	55 ± 15	–
Cc1ccc(CNc2cccc3c2C(=O)NC3=O)c(O)c1 [EB-5-69]	52 ± 2	193 ± 33	–
Cc1cc(CNc2cccc3c2C(=O)NC3=O)c(O)cc1Br [SB-16-183]	–	–	379 ± 48
Cc1cccc(CNc2cccc3c2C(=O)NC3=O)c1O [EB-5-70]	–	99 ± 15	–
O=C1NC(=O)c2c(NCc3cc(Cl)ccc3O)cccc21 [KM-5-25, 4-((5-Chloro-2-hydroxybenzyl)amino)isoindoline-1,3-dione]	270 ± 48	–	–
O=C1NC(=O)c2c(NCc3cc(F)ccc3O)ccc(Br)c21 [SB-16-67]	187 ± 59	1173 ± 53	–
O=C1NC(=O)c2c(NCc3cc(Br)ccc3O)cccc21 [KM-5-35, 4-((5-Bromo-2-hydroxybenzyl)amino)isoindoline-1,3-dione]	360 ± 22	–	–
Cc1cc(Br)cc(CNc2cccc3c2C(=O)NC3=O)c1O [SB-16-106]	–	–	415 ± 141
CC(C)(C)c1ccc(O)c(CNc2cccc3c2C(=O)NC3=O)c1 [SB-16-53]	–	–	263 ± 40
O=C1NC(=O)c2c(NCc3cc(Br)cc(F)c3O)cccc21 [SB-16-118]	126 ± 40	–	–
O=C1NC(=O)c2c(NCc3cc(Cl)ccc3O)ccc(Br)c21 [SB-16-51]	–	–	425 ± 79
O=C1NC(=O)c2c(NCc3cc(Br)ccc3O)ccc(Cl)c21 [SB-16-124]	–	–	558 ± 154
O=C1NC(=O)c2c(NCc3cccc(F)c3O)cccc21 [EB-5-80]	11 ± 3	44 ± 6	–
O=C1NC(=O)c2c(NCc3c(O)cccc3F)cccc21 [EB-5-71]	–	495 ± 35	–
Cc1cc(Cl)cc(CNc2cccc3c2C(=O)NC3=O)c1O [SB-16-156]	–	–	165 ± 18
